Data as given in ChEMBL document CHEMBL1134025, “Thiosugars. Part 9: synthesis and biological evaluation of some 4'-thio-L-arabino nucleoside analogues” (2001).
Converted amounts (≈) assume the structure as drawn.

tested on: Vaccinia virus; assay: Minimum inhibitory concentration required to reduce Vaccinia virus induced cytopathogenicity by 50%; assay type: functional; conditions: Orthopoxvirus vaccinia

| SMILES | MIC [mg/L] |
| --- | --- |
| Nc1ccn(C2S[C@@H](CO)[C@H](O)[C@H]2O)c(=O)n1 (some centres not stated) | 400 (≈ 1540 µM) |
| Cc1cn([C@H]2S[C@@H](CO)[C@H](O)[C@H]2O)c(=O)[nH]c1=O | 400 (≈ 1460 µM) |
| Nc1ncnc2c1ncn2[C@@H]1S[C@@H](CO)[C@H](O)[C@H]1O | 400 (≈ 1410 µM) |
| Cc1cn([C@@H]2S[C@@H](CO)[C@H](O)[C@H]2O)c(=O)[nH]c1=O | 400 (≈ 1460 µM) |
| Nc1ncnc2c1ncn2[C@H]1S[C@@H](CO)[C@H](O)[C@H]1O | 400 (≈ 1410 µM) |
| O=c1ccn([C@@H]2S[C@@H](CO)[C@H](O)[C@H]2O)c(=O)[nH]1 | 400 (≈ 1540 µM) |
| O=c1ccn([C@H]2S[C@@H](CO)[C@H](O)[C@H]2O)c(=O)[nH]1 | 400 (≈ 1540 µM) |
